Measurements as given in patent US6551582B2, “Deodorant composition” (Sumitomo Chemical Company, Limited, priority 2001, dated 2003).

Test: Test Example 1: deodorant effect of sprayed liquid formulations against ammonia gas in a flask
Conditions: after 30 minutes, about 20° C.
Protocol: Into a glass Erlenmeyer flask (1L-volume), 1 mL of 1.8% aqueous solution of ammonia was placed at room temperature (about 20° C.). After the flask was sealed with a rubber stopper and shaken to be filled with ammonia gas, the concentration of ammonia was measured with a gas detector tube (No. 3HM, Gastec Corporation).
Next, 1 mL of each formulation obtained in Production example 1 was sprayed into the flask. The concentration of ammonia was measured with a gas detector tube (No. 3HM, Gastec Corporation) after 30 minutes. A control solution (1 mL) of a mixed solvent without the present deodorant compound was added into an Erlenmeyer flask (1 L-volume) containing ammonia gas, and then the […] of ammonia was measured with the same method after 30 minutes.
Dehydroacetic acid was formulated in the same manner as Production example 1, and then comparative test was carried out by the same method.
The formulations obtained in Production example 2 and 3 were provided to the same test.
Deodorant rates were calculated by formula 1. [formula]

dehydroacetic acid
Deodorant rate (%) Production example 1 (1 mL formulation of Production example 1 (5 parts compound, 80 parts ethanol, 15 parts water) sprayed): 20% | Deodorant rate (%) Production example 2 (1 mL formulation of Production example 2 (5 parts compound, 80 parts isopropyl alcohol, 15 parts water) sprayed): 25% | Deodorant rate (%) Production example 3 (1 mL formulation of Production example 3 (5 parts compound, 80 parts glycerin, 15 parts water) sprayed): 25%
